The target of data set [1] is Glutamate receptor ionotropic, NMDA 2C (Rattus norvegicus, UniProt Q00961). Briefly: Binding affinity of compound was determined against N-methyl-D-aspartate glutamate receptor, using radioligand [3H]- CGP-39653.
The target of data set [2] is T1, Glutamate receptor ionotropic, kainate 3 (Rattus norvegicus, UniProt P42264). Briefly: Binding affinity of compound was determined against KA receptor, using radioligand [3H]- KA.
The target of data set [3] is Glutamate receptor 3 (Homo sapiens, UniProt P42263). Briefly: Binding affinity of compound was determined towards cloned Ionotropic glutamate receptor AMPA 3 (GluR3) expressed in Sf 9 insect cells.
Data set [4] deals with Glutamate receptor 4 (Homo sapiens, UniProt P48058). As to the kind of experiment: Binding affinity of compound was determined towards cloned Ionotropic glutamate receptor AMPA 4 (GluR4) expressed in Sf 9 insect cells.
Data set [5] in a line: Neurotoxicity was determined in cultured mouse cortical neurons. In kind it is toxicity.
Data set [6] has as its target Glutamate receptor 2 (Rattus norvegicus, UniProt P19491). As to the kind of experiment: Effective concentration of compound was determined for electrophysiological properties on Ionotropic glutamate receptor AMPA 2 (GluR2) using […] Xenopus laevis oocytes. In kind it is functional, cell-based, Oocyte.
For data set [7], the target named is Glutamate receptor 1 (Rattus norvegicus, UniProt P19490). As to the kind of experiment: Binding affinity of compound was determined against Ionotropic glutamate receptor AMPA receptor, using radioligand [3H]- AMPA.
Data set [8] deals with Glutamate receptor 4 (Rattus norvegicus, UniProt P19493). Briefly: Effective concentration of compound was determined for electrophysiological properties on Ionotropic glutamate receptor AMPA 4 (GluR4) using […] Xenopus laevis oocytes. It is filed as functional, cell-based, Oocyte.
For data set [9], the target named is Glutamate receptor 3 (Rattus norvegicus, UniProt P19492). As to the kind of experiment: Effective concentration of compound was determined for electrophysiological properties on Ionotropic glutamate receptor AMPA 3 (GluR3) using […] Xenopus laevis oocytes. It is filed as functional, cell-based, Oocyte.
In data set [10] the target is Glutamate receptor ionotropic, kainate 2 (Homo sapiens, UniProt Q13002). Briefly: Binding affinity of compound was determined towards cloned Ionotropic glutamate receptor ionotropic kainate 6 (GluR6) expressed in Sf 9 insect cells.
Sequence of Glutamate receptor ionotropic, kainate 2 (Q13002 whole entry): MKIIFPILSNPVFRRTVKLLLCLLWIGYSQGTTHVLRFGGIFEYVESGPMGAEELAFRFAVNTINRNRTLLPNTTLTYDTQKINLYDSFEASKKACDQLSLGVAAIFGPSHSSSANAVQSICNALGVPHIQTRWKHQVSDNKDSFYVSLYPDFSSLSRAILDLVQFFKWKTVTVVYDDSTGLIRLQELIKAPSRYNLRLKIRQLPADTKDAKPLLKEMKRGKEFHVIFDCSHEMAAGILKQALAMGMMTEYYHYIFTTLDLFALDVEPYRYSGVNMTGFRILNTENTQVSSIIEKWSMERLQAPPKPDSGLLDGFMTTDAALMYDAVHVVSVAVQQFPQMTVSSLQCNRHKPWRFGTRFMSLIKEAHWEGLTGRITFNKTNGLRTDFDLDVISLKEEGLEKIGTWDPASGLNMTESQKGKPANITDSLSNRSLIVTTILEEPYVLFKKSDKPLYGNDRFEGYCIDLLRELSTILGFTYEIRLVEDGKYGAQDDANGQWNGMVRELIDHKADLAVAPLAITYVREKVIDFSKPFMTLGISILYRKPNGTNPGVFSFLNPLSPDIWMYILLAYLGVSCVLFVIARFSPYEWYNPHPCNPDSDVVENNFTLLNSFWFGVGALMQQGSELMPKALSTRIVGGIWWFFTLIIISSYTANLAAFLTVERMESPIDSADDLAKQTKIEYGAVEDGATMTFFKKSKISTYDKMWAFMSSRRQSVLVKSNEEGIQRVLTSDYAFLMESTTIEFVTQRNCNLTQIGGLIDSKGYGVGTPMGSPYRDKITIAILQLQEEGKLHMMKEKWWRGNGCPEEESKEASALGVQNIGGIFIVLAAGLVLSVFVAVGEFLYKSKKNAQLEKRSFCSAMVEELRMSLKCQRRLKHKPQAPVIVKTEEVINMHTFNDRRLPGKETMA
The target in data set [11] is T2, Metabotropic glutamate receptor 1 (Homo sapiens, UniProt Q13255). As to the kind of experiment: Antagonist activity of compound at Metabotropic glutamate receptor 1 alpha was determined. It is filed as functional.
T2 sequence (Q13255 whole entry): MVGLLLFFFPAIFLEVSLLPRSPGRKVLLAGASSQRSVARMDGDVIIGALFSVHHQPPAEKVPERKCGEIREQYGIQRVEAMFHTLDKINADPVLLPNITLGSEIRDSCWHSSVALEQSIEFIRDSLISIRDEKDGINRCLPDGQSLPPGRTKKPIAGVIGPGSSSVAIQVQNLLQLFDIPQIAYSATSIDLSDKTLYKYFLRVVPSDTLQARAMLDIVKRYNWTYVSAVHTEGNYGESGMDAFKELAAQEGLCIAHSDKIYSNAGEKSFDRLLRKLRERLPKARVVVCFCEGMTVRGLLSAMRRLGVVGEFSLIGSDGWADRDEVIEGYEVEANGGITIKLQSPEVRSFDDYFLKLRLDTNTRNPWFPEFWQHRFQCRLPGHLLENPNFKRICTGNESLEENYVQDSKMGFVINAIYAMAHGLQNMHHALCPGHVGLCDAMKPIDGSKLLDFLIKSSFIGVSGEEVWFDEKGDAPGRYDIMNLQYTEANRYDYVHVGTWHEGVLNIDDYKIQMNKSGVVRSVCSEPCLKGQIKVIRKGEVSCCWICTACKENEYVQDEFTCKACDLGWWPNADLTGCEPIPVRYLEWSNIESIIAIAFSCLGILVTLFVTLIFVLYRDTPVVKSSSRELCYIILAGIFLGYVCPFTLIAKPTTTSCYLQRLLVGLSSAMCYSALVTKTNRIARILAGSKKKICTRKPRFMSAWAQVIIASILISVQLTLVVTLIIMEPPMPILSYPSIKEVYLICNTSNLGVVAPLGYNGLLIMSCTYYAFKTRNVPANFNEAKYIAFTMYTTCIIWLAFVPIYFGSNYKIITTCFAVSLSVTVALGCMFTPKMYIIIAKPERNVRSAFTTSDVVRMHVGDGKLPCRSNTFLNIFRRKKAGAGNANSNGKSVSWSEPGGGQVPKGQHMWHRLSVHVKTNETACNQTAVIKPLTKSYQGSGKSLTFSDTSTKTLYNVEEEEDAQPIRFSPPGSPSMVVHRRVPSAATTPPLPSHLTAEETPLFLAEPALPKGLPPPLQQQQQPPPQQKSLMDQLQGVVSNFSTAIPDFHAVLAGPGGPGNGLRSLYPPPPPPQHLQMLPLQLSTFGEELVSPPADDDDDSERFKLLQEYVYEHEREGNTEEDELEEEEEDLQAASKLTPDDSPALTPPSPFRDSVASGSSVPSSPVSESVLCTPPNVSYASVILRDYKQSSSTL
The target in data set [12] is Glutamate receptor 2 (Homo sapiens, UniProt P42262). Briefly: biochemical.
Sequence of Glutamate receptor 2 (Homo sapiens, UniProt P42262) (P42262 whole entry): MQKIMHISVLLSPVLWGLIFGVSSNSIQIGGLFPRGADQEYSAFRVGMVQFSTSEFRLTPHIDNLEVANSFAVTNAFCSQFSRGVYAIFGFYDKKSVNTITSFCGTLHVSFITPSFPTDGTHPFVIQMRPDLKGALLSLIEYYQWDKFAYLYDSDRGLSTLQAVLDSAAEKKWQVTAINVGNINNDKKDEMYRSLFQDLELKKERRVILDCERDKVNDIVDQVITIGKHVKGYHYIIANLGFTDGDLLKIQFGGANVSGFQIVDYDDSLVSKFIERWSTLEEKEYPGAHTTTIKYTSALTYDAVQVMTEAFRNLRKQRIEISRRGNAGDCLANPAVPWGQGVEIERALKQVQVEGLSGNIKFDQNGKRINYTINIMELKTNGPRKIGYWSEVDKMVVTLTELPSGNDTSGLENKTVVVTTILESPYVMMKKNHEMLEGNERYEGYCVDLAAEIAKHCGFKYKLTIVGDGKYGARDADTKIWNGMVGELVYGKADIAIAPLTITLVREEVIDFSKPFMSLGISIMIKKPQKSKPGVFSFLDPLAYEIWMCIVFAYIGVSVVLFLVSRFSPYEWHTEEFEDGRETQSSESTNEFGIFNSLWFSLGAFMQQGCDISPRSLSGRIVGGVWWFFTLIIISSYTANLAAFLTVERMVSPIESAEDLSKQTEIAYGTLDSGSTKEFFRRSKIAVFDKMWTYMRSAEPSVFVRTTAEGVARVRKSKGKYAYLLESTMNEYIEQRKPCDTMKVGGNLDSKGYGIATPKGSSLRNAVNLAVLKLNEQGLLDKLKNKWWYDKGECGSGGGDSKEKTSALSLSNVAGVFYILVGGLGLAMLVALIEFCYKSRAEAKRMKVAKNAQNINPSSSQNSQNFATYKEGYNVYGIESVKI
In data set [13] the target is Glutamate receptor ionotropic, kainate 1 (Homo sapiens, UniProt P39086). Briefly: Binding affinity of compound was determined towards cloned Ionotropic glutamate receptor ionotropic kainate 1 (GluR5) expressed in Sf 9 insect cells.
Sequence of Glutamate receptor ionotropic, kainate 1 (P39086 whole entry): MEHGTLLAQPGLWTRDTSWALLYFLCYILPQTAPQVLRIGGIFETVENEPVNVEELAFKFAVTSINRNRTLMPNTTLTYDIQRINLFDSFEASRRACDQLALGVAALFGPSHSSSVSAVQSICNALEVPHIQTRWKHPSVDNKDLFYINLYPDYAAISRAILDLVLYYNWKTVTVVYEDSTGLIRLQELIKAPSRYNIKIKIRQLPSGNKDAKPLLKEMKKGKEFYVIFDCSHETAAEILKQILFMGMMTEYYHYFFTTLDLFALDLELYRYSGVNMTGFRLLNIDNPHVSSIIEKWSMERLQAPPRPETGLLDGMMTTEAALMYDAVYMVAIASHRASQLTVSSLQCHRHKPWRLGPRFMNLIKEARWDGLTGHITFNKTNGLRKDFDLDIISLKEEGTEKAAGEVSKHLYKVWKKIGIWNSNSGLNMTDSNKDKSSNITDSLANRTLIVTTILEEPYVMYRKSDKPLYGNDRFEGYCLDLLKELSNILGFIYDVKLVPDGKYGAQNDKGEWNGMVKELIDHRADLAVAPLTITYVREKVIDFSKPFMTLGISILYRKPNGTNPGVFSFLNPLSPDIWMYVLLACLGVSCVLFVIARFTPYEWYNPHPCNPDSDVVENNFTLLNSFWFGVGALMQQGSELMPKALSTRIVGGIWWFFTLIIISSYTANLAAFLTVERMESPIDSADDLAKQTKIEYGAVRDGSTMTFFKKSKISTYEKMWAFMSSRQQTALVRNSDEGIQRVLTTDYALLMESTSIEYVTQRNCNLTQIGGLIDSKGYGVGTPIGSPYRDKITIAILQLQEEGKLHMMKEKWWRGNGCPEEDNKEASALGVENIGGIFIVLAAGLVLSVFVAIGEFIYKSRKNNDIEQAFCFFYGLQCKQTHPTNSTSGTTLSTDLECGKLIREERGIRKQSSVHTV
For data set [14], the target named is Glutamate receptor 1 (Homo sapiens, UniProt P42261). As to the kind of experiment: Binding affinity of compound was determined towards cloned Ionotropic glutamate receptor AMPA 1 (GluR1) expressed in Sf 9 insect cells.
For another data set, the species on record is Rattus norvegicus. Briefly: Effective concentration of compound was determined for electrophysiological properties on iGluRs using rat cortical slice model in Xenopus laevis oocytes.
Data set [15] addresses Glutamate receptor 1 (Mus musculus, UniProt P23818). As to the kind of experiment: Effective concentration of compound was determined for electrophysiological properties on […] glutamate receptor 1 using […] Xenopus laevis oocytes. In kind it is functional, cell-based, Oocyte.
Data set [16] addresses T2, Metabotropic glutamate receptor 1. As to the kind of experiment: Antagonist activity of compound at Metabotropic glutamate receptor 1 was determined. It is filed as functional.
Data set [17] has as its target T1, Glutamate receptor ionotropic, kainate 3. As to the kind of experiment: Binding affinity of compound was determined against Ionotropic glutamate receptor ionotropic kainate, using radioligand [3H]- KA.

The source of these data is ChEMBL document CHEMBL1144891, “Design, synthesis, and pharmacology of a highly subtype-selective GluR1/2 agonist, (RS)-2-amino-3-(4-chloro-3-hydroxy-5-isoxazolyl)propionic acid (Cl-HIBO)” (J Med Chem, 2003).

T1 sequence (P42264 whole entry): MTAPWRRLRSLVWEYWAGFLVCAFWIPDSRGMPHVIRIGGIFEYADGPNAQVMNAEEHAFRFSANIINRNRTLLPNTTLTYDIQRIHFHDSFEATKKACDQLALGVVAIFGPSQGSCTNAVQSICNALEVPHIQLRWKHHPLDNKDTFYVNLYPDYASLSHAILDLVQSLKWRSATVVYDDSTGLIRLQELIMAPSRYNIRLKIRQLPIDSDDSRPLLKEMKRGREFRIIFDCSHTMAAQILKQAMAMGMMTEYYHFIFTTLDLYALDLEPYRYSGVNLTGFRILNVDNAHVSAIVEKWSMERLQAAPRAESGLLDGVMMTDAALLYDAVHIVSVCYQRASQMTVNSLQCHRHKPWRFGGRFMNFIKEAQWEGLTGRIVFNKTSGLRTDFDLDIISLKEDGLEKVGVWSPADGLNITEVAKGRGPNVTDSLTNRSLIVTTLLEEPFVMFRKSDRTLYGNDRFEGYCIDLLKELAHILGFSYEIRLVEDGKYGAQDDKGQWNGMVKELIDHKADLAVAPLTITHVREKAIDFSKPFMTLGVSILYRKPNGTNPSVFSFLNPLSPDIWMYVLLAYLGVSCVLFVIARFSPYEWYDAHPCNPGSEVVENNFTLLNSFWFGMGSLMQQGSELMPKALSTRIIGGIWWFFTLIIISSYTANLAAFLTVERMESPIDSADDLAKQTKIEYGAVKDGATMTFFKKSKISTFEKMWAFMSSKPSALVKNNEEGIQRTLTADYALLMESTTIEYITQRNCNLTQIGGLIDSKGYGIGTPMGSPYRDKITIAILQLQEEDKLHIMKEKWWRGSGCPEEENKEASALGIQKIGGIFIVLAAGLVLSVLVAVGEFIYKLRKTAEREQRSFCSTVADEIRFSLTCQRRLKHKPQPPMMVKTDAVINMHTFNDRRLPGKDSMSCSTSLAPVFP
Sequence of Glutamate receptor 2 (Rattus norvegicus, UniProt P19491) (P19491 whole entry): as the sequence (P42262 whole entry) above, with M191T, T291A, R764G, A852P counted along it

One may read the Ki as a dissociation constant, usually derived from enzyme kinetics or from competition with a known ligand. Higher therefore signals lower affinity. By IC50 is commonly meant the concentration needed to halve the response being measured. For orientation: EC50 means the midpoint of the concentration-response curve. Lower therefore signals an effect from little substance. As to `NC(Cc1onc(O)c1Cl)C(=O)O` (configuration not stated), the Ki is 18 µM in data set [1]; 27.5 µM on Glutamate receptor 3 [3]; 11.9 µM on Glutamate receptor 4 [4]; more than 100 µM in [10]; 860 µM in data set [11]; 0.37 µM at Glutamate receptor 2 [12]. The Ki turned out to be 6.8 µM in data set [13] and 0.13 µM at Glutamate receptor 1 [14]. In addition, the IC50 in data set [2] was more than 100 µM; at Glutamate receptor 1 [7], 0.22 µM. The EC50 turned out to be 27 µM in data set [5]; 1.7 µM on Glutamate receptor 2 [6]; 1300 µM on Glutamate receptor 4 [8]; 2700 µM on Glutamate receptor 3 [9]; 39 µM in the data set filed under Rattus norvegicus.
`NC(Cc1onc(O)c1Br)C(=O)O` (configuration not stated): the Ki is 34 µM in [1]; 12 µM on Glutamate receptor 3 [3]; 11.7 µM at Glutamate receptor 4 [4]; 329 µM in data set [16]; more than 100 µM in data set [10]; 0.25 µM on Glutamate receptor 2 [12]. For the same molecule, the Ki in [13] stood at 4.8 µM; on Glutamate receptor 1 [14] it was 0.17 µM. Moreover, the EC50 at Glutamate receptor 1 [15] is 14 µM; in data set [5], 16 µM. Also, the IC50 in [17] is more than 100 µM.
In [5], `Cc1onc(O)c1CC(N)C(=O)O` [(R,S)-AMPA] showed an EC50 of 13 µM.
